The target in assay [1] is T1, FtsZ (Escherichia coli, UniProt P0A9A6).
T1 construct: The recombinant protein is exactly same as the natural protein; made in house; host or cells: E. coli BL21
Kind of assay: Sedimentation assay of FtsZ polymerization. The class given is biochemical, E. coli. As to conditions: 50 μM compound; FtsZ 12 μM. An excerpt:
FtsZ was over-expressed and purified from E. coli BL21 strain as described by Santa and Panda. (Detection of an intermediate during unfolding of bacterial cell division protein FtsZ: loss of functional properties precedes the global unfolding of FtsZ. (2003). The Journal of Biological Chemistry. 278, 21336-43). The recombinant protein is exactly same as the natural protein. For all the experimental procedures, the above expressed and purified recombinant FtsZ was used. The FtsZ concentration was measured by the Bradford method using BSA as a standard (Bradford M M. (1976) A rapid and sensitive method for the quantitation of microgram quantities of protein utilizing the principle of protein-dye binding. Analytical Biochemistry. 72, 248-54). The purified protein was frozen and stored at −80° C. […]
Then, 10 mM MgSO4 and 1 mM GTP were added to the reaction mixtures and incubated for an additional 15 min at 37° C. Polymerized FtsZ was sedimented at 287,000×g for […], and the protein concentration in the supernatant was measured (Santra M K and Panda D. (2007) Acid-induced loss of functional properties of bacterial cell division protein FtsZ: evidence for an alternative conformation at acidic pH, Proteins. 67,177-88). The protein concentration in the pellet was calculated by subtracting the protein concentration in the supernatant from the total protein concentration.

Assay [2] has as its target T1, FtsZ. Put plainly: Electron microscopic analysis of FtsZ assembly. The class given is biochemical, E. coli. An excerpt:
(§1) FtsZ was over-expressed and purified from E. coli BL21 strain as described by Santa and Panda. (Detection of an intermediate during unfolding of bacterial cell division protein FtsZ: loss of functional properties precedes the global unfolding of FtsZ. (2003). The Journal of Biological Chemistry. 278, 21336-43). The recombinant protein is exactly same as the natural protein. For all the experimental procedures, the above expressed and purified recombinant FtsZ was used. The FtsZ concentration was measured by the Bradford method using BSA as a standard (Bradford M M. (1976) A rapid and sensitive method for the quantitation of microgram quantities of protein utilizing the principle of protein-dye binding. Analytical Biochemistry. 72, 248-54). The purified protein was frozen and stored at −80° C. Prior to use, FtsZ was thawed and centrifuged at 287,000 ×g for 30 min to remove any insoluble aggregates.
FtsZ (12 μM) in 25 mM pipes buffer (pH 6.5) was incubated without or with different concentrations of compound for 10 min on ice. Then, 10 mM MgSO4 and 1 mM GTP were added to the reaction mixtures and incubated for an additional 15 min at 37° C. Samples were transferred onto a formvar-carbon coated copper grid, stained with 2% uranyl acetate and observed using Transmission Electron Microscope (FEI TECHNAI G^2 12) as described previously (Beuria T K, Santra M K and Panda D. (2005) Sanguinarine blocks cytokinesis in bacteria by inhibiting FtsZ assembly and bundling. Biochemistry. 44, 16584-93).
The observed difference in the thickness of the FtsZ protofilament bundles in the absence and presence of 10 and 25 μM concentration is significant at a 99.9% confidence level (p<0.001).

Assay [3] has as its target T1, FtsZ. Put plainly: Dilution-induced disassembly of preformed FtsZ filaments. The class given is biochemical, E. coli. Conditions: 20 fold dilution, 5 min at 37° C., concentration dependent.
From the text: as §1
FtsZ (30 μM) was polymerized in 25 mM pipes buffer in the presence of 5 mM MgCl2, 1 mM GTP and 50 mM KCl. Preformed FtsZ polymers were diluted 20 fold in warm 25 mM pipes buffer in the absence and presence of different concentrations of Compound 1 and the mixtures were incubated for 5 min at 37° C. The polymers were then collected by centrifugation.

The target in assay [4] is T1, FtsZ. Kind of assay: GTPase activity of FtsZ (malachite green ammonium molybdate assay). The class given is biochemical, E. coli.
From the text: as §1
It was then polymerized in the presence of 10 mM magnesium and 1 mM GTP at 37° C. The GTP hydrolysis reaction was quenched at different time points by adding perchloric acid. Moles of inorganic phosphate released per mole of FtsZ were measured using the standard malachite green ammonium molybdate assay (Geladopoulos T P, Sotiroudis T G and Evangelopoulos A E. (1991). A malachite green colorimetric assay for protein phosphatase activity. Analytical Biochemistry.192,112-6;Beuria T K, Krishnakumar S S, Sahar S, Singh N, Gupta K, Meshram M and Panda D. (2003) Glutamate-induced assembly of bacterial cell division protein FtsZ. The Journal of Biological Chemistry. 278, 3735-41).

In another assay the target is T2, FtsZ (Y371W) (Escherichia coli, UniProt P0A9A6, Y371W).
T2 sequence (P0A9A6 1-383 Y371W): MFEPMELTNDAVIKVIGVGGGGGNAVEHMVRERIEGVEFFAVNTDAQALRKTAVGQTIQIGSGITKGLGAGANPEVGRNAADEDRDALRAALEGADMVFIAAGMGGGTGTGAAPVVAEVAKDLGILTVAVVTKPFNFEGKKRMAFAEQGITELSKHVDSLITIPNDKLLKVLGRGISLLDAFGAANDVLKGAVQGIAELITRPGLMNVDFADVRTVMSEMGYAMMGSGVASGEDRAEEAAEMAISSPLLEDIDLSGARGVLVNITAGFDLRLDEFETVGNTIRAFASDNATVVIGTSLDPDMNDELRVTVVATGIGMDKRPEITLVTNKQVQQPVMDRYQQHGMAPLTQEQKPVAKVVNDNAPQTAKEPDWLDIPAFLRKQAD
Put plainly: Binding to FtsZ by tryptophan fluorescence quenching, double reciprocal plot. Details: species or system E. coli. Conditions: FtsZ (Y371W) 1 μM, 25° C., read-out: dissociation constant of FtsZ-compound complex. The protocol:
(Beuria T K, Santra M K and Panda D. (2005) Sanguinarine blocks cytokinesis in bacteria by inhibiting FtsZ assembly and bundling. Biochemistry. 44, 16584-93). […] The change in the fluorescence intensity was used to calculate the dissociation constant of FtsZ-compound complex. A dissociation constant of 15±1.5 μM was determined using a double reciprocal plot of the binding data (FIG. 5B).

For assay [5], the target named is T1, FtsZ. Kind of assay: Far-UV circular dichroism of FtsZ. Set-up: species or system E. coli. As to conditions: 0-50 μM compound; FtsZ 1 μM.
From the text: as §1
The far-UV CD spectra were recorded using a JASCO spectropolarimeter. The secondary structure was monitored over the wavelength range of 200-260 nm using a 0.1-cm path length cuvette and the ellipticity was determined at 220 nm. Each spectrum was recorded using an average of 3 scans.
Background: CD spectra are sensitive to the conformation of chiral molecules.

The structures appear in SMILES notation.

T1 sequence (P0A9A6 whole entry): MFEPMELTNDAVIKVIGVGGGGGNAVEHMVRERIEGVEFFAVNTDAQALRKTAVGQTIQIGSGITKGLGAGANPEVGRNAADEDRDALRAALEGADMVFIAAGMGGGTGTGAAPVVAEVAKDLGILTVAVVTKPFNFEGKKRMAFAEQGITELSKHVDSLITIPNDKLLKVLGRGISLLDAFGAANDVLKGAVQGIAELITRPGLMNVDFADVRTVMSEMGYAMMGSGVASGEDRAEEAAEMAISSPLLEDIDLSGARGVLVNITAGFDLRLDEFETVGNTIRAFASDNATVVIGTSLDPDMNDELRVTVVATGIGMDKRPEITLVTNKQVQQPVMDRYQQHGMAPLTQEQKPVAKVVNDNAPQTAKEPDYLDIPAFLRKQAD

As to `O=C(O)c1cccc(-c2ccc(C=C3SC(=S)N(c4cccc(C(F)(F)F)c4)C3=O)o2)c1` [the compound, 3-{5-[4-Oxo-2-thioxo-3-(3-trifluoromethyl-phenyl)-thiazolidin-5-ylidenemethyl]-furan-2-yl}-benzoic acid], the “increase of sedimentable polymeric mass of FtsZ” value at FtsZ [1] came to 25%. Besides, the “average thickness of FtsZ bundles” value on FtsZ [2] (10 μM compound) was 64±3 nm; at FtsZ [2] (25 μM compound), 66±4.3 nm; at FtsZ [2] (50 μM compound, large number of aggregates observed), 46±3.5 nm. Moreover, on FtsZ [3], the “dilution-induced disassembly of FtsZ protofilaments” value is given as “strongly prevented”. In addition, the “rate of GTP hydrolysis at 5 min” value on FtsZ [4] (10 μM compound) is reported as 2.9 phosphate release per FtsZ per min; on FtsZ [4] (25 μM compound), 1.5 phosphate release per FtsZ per min; on FtsZ [4] (50 μM compound) it was 1.3 phosphate release per FtsZ per min. Also, on FtsZ (Y371W), the Kd came to 15 ± 1.5 µM. Also, the “effect on secondary structure of FtsZ (far-UV CD)” value at FtsZ [5] is on record as “did not change the secondary structure”.

(Values after patent US20110178142A1, “PHARMACEUTICAL COMPOSITION FOR THERAPEUTIC OR PROPHYLACTIC TREATMENT OF BACTERIAL INFECTIONS AND ASSOCIATED DISEASES” (National Institute of Immunology, priority 2008, published 2011).)
